Data published in patent US20240336617A1, “Substituted Bimane Compounds and Methods of Use Thereof” (THE TRUSTEES OF THE UNIVERSITY OF PENNSYLVANIA, priority 2023, published 2024).
Entries after “also recorded” stand apart in the source; their conditions may differ. Like-named read-outs stand apart in the source and are kept apart here.

Experiments:
[1] = Fluorescence (emission) measurements; format: physicochemical;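 also: fluorescence emission spectra recorded on a spectrofluorometer, with each compound excited at its own absorption maximum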
Protocol: The fluorescence spectrum of each derivative (150 μL) was measured on a Photon Technology International (PTI) QuantaMaster™ 40 fluorescence spectrometer by excitation at the maximum absorption wavelength for each compound.
The fluorescence spectrum of each derivative (150 μL) was measured on a Photon Technology International (PTJ) QuantaMaster™ 40 fluorescence spectrometer by excitation at the maximum absorption wavelength for each compound.

[2] = Absorbance measurements (UV-Vis); details: 25 μM
[3] = Molar absorptivity determination; format: physicochemical;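 also: molar absorptivity derived from UV-Vis absorbance spectra recorded for each derivative on a spectrometer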
Protocol: The absorbance spectrum of each derivative (150 μL) was measured on a Thermo Scientific Genesys 150 UV-Vis spectrometer, using 50:50 ACN/PBS as a blank.
Molar absorptivity determination. […] The absorbance spectrum of each derivative (150 μL) was measured on a Thermo Scientific Genesys 150 UV-Vis spectrometer, using 50:50 ACN/PBS as a blank.

[4] = target: T1, Aβ1-42 fibrils (Homo sapiens, UniProt P05067); test: Fluorescence and excitation spectra with Aβ1-42 fibrils; format: binding
T1 construct: The β-amyloid (1-42) peptide, human; purchased Genscript RP10017
Protocol: (§1) Fluorescence measurements were performed using a PTI QuantaMaster™ 40 fluorescence spectrometer. Fluorescence spectra of 10 μM probes (concentrated stock solution prepared as 10 mM in DMSO) (7j, 7k, 7l, 7m, and ThT) in PBS buffer were measured in the absence and presence of 50 μM Aβ1-42 fibrils (stock solution 1 mM Aβ1-42 in 10 mM phosphate buffer, pH 7.4).
(§2) Excitation spectral measurements were performed using a PTI QuantaMaster™ 40 fluorescence spectrometer. Excitation spectra of 10 μM probes (concentrated stock solution prepared as 10 mM in DMSO) (7j, 7k, 7l, 7m, and ThT) in PBS buffer were measured in the absence and presence of 50 μM Aβ1-42 fibrils (stock solution 1 mM Aβ1-42 in phosphate buffer).
as §1, with “(5j, 5k” for “(7j, 7k, 7l, 7m,”, “Ab1-42” for “Aβ1-42”
as §2, with “QuantaMaster” for “QuantaMaster™”, “(5j, 5k” for “(7j, 7k, 7l, 7m,”, “Ab1-42” for “Aβ1-42”, “buffer). […]” for “buffer).”

[5] = Fluorescent quantum yield (QY) measurements; format: physicochemical
Protocol: For each QY measurement, the incident excitation light spectrum was collected with 1 mL of solvent. […] Using the JASCO Quantum Yield Software, the dye QY was calculated by dividing the dye fluorescence intensity by the difference in incident light intensity in the presence and absence of dye. The minimum excitation wavelength for a full excitation incident spectrum using this setup is 360 nm.
Fluorescent quantum yield (QY) measurements. For each QY measurement, the incident excitation light spectrum was collected with 1 mL of solvent. After measuring the incident light intensity, dye (3 and 5a-5k) was added to the solvent from a concentrated stock solution to a final concentration of […] and the new spectrum (fluorescence intensity and new incident light intensity) was collected. Using the JASCO Quantum Yield Software, the dye QY was calculated by dividing the dye fluorescence intensity by the difference in incident light intensity in the presence and absence of dye. The minimum excitation wavelength for a full excitation incident spectrum using this setup is 360 nm.

[6] = test system: αS fibrils versus tau fibrils; test: Amyloid selectivity by plate reader, αS versus tau fibrils; format: binding
Protocol: Experiments were performed on the Tecan Spark in Greiner 96 well flat black ½ area plates using the following parameters: excitation and emission band widths 5 nm, lag time 0 μs, integration time 40 μs. A 10 mM DMSO stock solution of probes (7j-7m) and 100 μM stock of αS fibrils were used in the study described herein.

[7] = background statement; cited from earlier work
[8] = target: T2, amplified αS fibrils (AFs) from PDD patient brain extracts (Homo sapiens, UniProt P37840); test: Fluorescence measurements with PDD patient cases (lysate, AFs, PFFs); format: binding; details: lysate or AFs and probe 1 μM
T2 construct: made in house; host or cells: recombinant αS monomer, seeded with sarkosyl-insoluble extract of human frontal cortex (AD or PDD)
Protocol: All procedures were performed in accordance with local institutional review board guidelines. Written informed consent for autopsy and analysis of tissue sample data was obtained either from patients themselves or their next of kin. Frozen postmortem human frontal cortex brain tissues from three patients diagnosed with Alzheimer's disease (AD) and three patients diagnosed with Parkinson's disease with dementia (PDD) were selected for sequential extraction of αS aggregates based on a high burden of αS pathology determined by immunohistochemical staining. In brief, 5-10 g of frontal cortical gray matter were homogenized in five volumes (W/V) of high-salt (HS) buffer (50 mM Tris-HCl pH 7.4, 750 mM NaCl, 10 mM NaF, 5 mM EDTA) with protease and protein phosphatase inhibitors, incubated on ice for 20 min and centrifuged at 100,000×g for 30 min. The pellets were then re-extracted with HS buffer, followed by sequential extractions with five volumes of 1% Triton X-100-containing HS buffer and 1% Triton X-100-containing HS buffer with 30% sucrose. The pellets were then re-suspended and homogenized in 1% sarkosyl-containing HS buffer, rotated at room temperature for 2 h or at 4° C. overnight and centrifuged at 100,000×g for 30 min. […] These final sarkosyl-insoluble fractions are referred to as “brain extracts.: The amount of αS in the brain extracts was determined by sandwich ELISA using Syn9027, a mono-clonal antibody (Mab) to αS, and the protein concentrations were examined by bicinchoninic acid (BCA) assay. […]
(§3) Brain-derived αS aggregates in extract samples from three AD and three PDD cases (FIG. 38A) were used as seeds for templated aggregation of recombinant αS monomer. […] After seven days of incubation, amplification progress was determined by removing an aliquot and diluting tenfold in DPBS to a final αS concentration of 3.5 μM. […] Equal volumes of supernatant and pellet fractions were analyzed on SDS-PAGE gels and Western blot, with amplified aggregates migrating to the pellet fraction (FIG. 38B). […]

[9] = target: T3, amplified αS fibrils (AFs) from AD patient brain extracts (Homo sapiens, UniProt P37840); test: Fluorescence measurements with AD patient cases (lysate, AFs, PFFs); format: binding; details: lysate or AFs and probe 1 μM
T3 construct: made in house; host or cells: recombinant αS monomer, seeded with sarkosyl-insoluble extract of human frontal cortex (AD or PDD)
Protocol: All procedures were performed in accordance with local institutional review board guidelines. Written informed consent for autopsy and analysis of tissue sample data was obtained either from patients themselves or their next of kin. Frozen postmortem human frontal cortex brain tissues from three patients diagnosed with Alzheimer's disease (AD) and three patients diagnosed with Parkinson's disease with dementia (PDD) were selected for sequential extraction of αS aggregates based on a high burden of αS pathology determined by immunohistochemical staining. […] These final sarkosyl-insoluble fractions are referred to as “brain extracts.: The amount of αS in the brain extracts was determined by sandwich ELISA using Syn9027, a mono-clonal antibody (Mab) to αS, and the protein concentrations were examined by bicinchoninic acid (BCA) assay. […]
as §3

T1 sequence (P05067 672-713): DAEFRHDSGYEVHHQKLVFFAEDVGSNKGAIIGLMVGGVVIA

Row | Stokes shift ([1]; ACN only) [nm] | Em. λem ([1]; ACN only, 25 μM) [nm] | Stokes shift ([1]; ACN:PBS (50:50 v/v)) [nm] | Abs. λabs ([2]; ACN only) [nm] | Abs. λabs ([2]; ACN:PBS (50:50 v/v)) [nm] | ε ([3]; ACN only) [M⁻¹ cm⁻¹] | ε ([3]; ACN:PBS (50:50 v/v)) [M⁻¹ cm⁻¹] | Q.Y. ([5]; ACN only) [%] | Q.Y. ([5]; ACN:PBS (50:50 v/v)) [%] | Structure (SMILES) | fluorescence turn on with Aβ1-42 fibrils [4] | turn on with αS and tau fibrils [6] | Stokes shift [7] [nm] | fluorescence detection of PDD amplified fibrils (AFs) [8] | fluorescence detection of AD amplified fibrils (AFs) [9]
1 | 189 | 624 | 195 | 435 | 447 | 25212 | 22370 | 44.2 | 0.77 | Cc1c(C)n2c(/C=C/c3nc4ccc(N(C)C)cc4s3)c(C)c(=O)n2c1=O [Compound 8f, (E)-3-(2-(6-(dimethylamino)benzo[d]thiazol-2-yl)vinyl)-2,5,6-trimethyl-1H,7H-pyrazolo[1,2-a]pyrazole-1,7-dione] | high turn on of fluorescence in the presence of PFFs; also recorded: selective fluorescence increases in the presence of Aβ1-42 fibrils |  |  |  | 
2 |  |  |  |  |  |  |  |  |  | Cc1ccc2c(c1)sc(-c1ccc(N(C)C)cc1)[n+]2C.[Cl-] [ThT, Thioflavin-T, reference compound] |  | high turn on with both αS and tau; also recorded: high turn-on with both αS and tau | ~50 | does not effectively detect these amplified fibrils; also recorded: unable to differentiate the lysates and AFs of PDD samples | barely registers significance for detection of AFs in AD samples
